From US20250122182A1 (Isosterix, Inc., priority 2023, published 2025)

Molecular target: Recombinant KAT6A/MOZ (488-778) protein (Homo sapiens (Human), UniProt Q92794)
Experiment: KAT6A AlphaLISA Inhibition Screening Assay
Format: biochemical
Settings: for inhibition at 1 µM: read-out: Average Kat6A % inhibition @ 1 μM; for inhibition at 1 µM / Average Kat6A % inhibition @ 1 μM: 1 μM test compound; for inhibition at 10 µM: read-out: Average Kat6A % inhibition @ 10 μM; for inhibition at 10 µM / Average Kat6A % inhibition @ 10 μM: 10 μM test compound
Procedure: The Kat6a inhibitory activity of test compounds was determined using an Alpha Screen-based detection method. The assay reactions were conducted in a volume of 10 μL in Alpha Plate, White 384 well plate (cat #6008280, Perkin Elmer). The enzymatic reactions were performed in assay buffer pH 8.0 (50 mM Tris-HCl, 0.1 mM EDTA, 0.01% Tween-20, 1 mM Dithiothreitol, 0.1% BSA (fatty acid free) and 330 nM TSA (Trichostatin A)). 10 μL reaction volume consisting of 25 nM of Recombinant KAT6A/MOZ (488-778) protein (Active motif, Catalog #81223), 400 nM Acetyl coenzyme A (Catalog #A2056, Sigma), 200 nM of Histone H3 peptide [(amino acids 1-21), biotin-labeled (BPS Biosciences, Catalog #52011)]. Test compounds were screened at different doses starting with 10 μM, 3 fold dilution and 10 point Dose response curve. Enzyme and compounds solution were pre-incubated in assay plate for 60 or 10 min at room temperature then substrate and Acetyl coenzyme A solution were added to the plate. After addition, the plate was sealed with adhesive seals and incubated for 120 minutes at room temperature.
After 120 minutes of incubation, […] of AlphaLISA anti-acetyl-Lysine acceptor beads (Perkin Elmer, Catalog #AL143C) were added to the plate and it was incubated for 60 minutes at room temperature. Then […] of Alpha Streptavidin donor beads (Perkin Elmer, Catalog #6760002S) were added to the plate which was further incubated for 60 minutes at room temperature. After incubation, the alpha signal was recorded by using Perkin Elmer Envision multi-mode reader. Percent inhibition of enzyme activity by test compounds were determined relative to vehicle control.

Sequence of Recombinant KAT6A/MOZ (488-778) protein (Q92794 488-778): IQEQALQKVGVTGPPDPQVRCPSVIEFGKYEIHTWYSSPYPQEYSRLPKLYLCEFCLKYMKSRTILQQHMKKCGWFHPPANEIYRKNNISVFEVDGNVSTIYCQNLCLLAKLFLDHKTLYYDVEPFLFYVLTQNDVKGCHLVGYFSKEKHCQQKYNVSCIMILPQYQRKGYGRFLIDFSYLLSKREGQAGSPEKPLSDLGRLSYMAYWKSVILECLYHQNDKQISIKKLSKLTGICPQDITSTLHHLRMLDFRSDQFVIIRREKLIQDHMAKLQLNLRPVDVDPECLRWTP

inhibition at 1 µM	inhibition at 10 µM	Average Kat6A % inhibition @ 1 μM	Average Kat6A % inhibition @ 10 μM	Compound
110%	99%	–	–	CCOc1cc2c(NS(=O)(=O)c3cc(CC)ccc3OC)noc2cc1Cn1cc(CNC(=O)OC)cn1 [Syn. Ex. 142, methyl ((1-((5-ethoxy-3-((5-ethyl-2-methoxyphenyl)sulfonamido)benzo[d]isoxazol-6-yl)methyl)-1H-pyrazol-4-yl)methyl)carbamate]
100%	100%	–	–	CCc1ccc(OCC(=N)NO)c(S(=O)(=O)Nc2noc3cc(Cn4cc(CNC(=O)OC)cn4)cc(OC)c23)c1 [Syn. Ex. 115, methyl ((1-((3-((5-ethyl-2-(2-(hydroxyamino)-2-iminoethoxy)phenyl)sulfonamido)-4-methoxybenzo[d]isoxazol-6-yl)methyl)-1H-pyrazol-4-yl)methyl)carbamate]
100%	100%	–	–	CC#CC(=O)NCc1cnn(Cc2cc(OC)c3c(NS(=O)(=O)c4cc(C)c(C)cc4OC)noc3c2)c1 [Syn. Ex. 27, N-((1-((4-methoxy-3-((2-methoxy-4,5-dimethylphenyl)sulfonamido)benzo[d]isoxazol-6-yl)methyl)-1H-pyrazol-4-yl)methyl)but-2-ynamide]
–	–	100%	94%	CCc1cnc(OC)c(S(=O)(=O)Nc2noc3cc(Cn4cc(CNC(=O)OC)cn4)cc(OC)c23)c1 [Syn. Ex. 121, methyl ((1-((3-((5-ethyl-2-methoxypyridine)-3-sulfonamido)-4-methoxybenzo[d]isoxazol-6-yl)methyl)-1H-pyrazol-4-yl)methyl)carbamate]
–	–	100%	100%	CC#CC(=O)NCc1cnn(Cc2cc(OC)c3c(NS(=O)(=O)c4cc5c(cc4OC)CCC5)noc3c2)c1 [Syn. Ex. 29, N-((1-((4-methoxy-3-((6-methoxy-2,3-dihydro-1H-indene)-5-sulfonamido)benzo[d]isoxazol-6-yl)methyl)-1H-pyrazol-4-yl)methyl) but-2-ynamide]
100%	100%	–	–	CCc1ccc(OCc2cccnc2)c(S(=O)(=O)Nc2noc3cc(Cn4cc(CNC(=O)OC)cn4)cc(OC)c23)c1 [Syn. Ex. 123, methyl ((1-((3-((5-ethyl-2-(pyridin-3-ylmethoxy)phenyl)sulfonamido)-4-methoxybenzo[d]isoxazol-6-yl)methyl)-1H-pyrazol-4-yl)methyl)carbamate]
100%	99%	–	–	COc1ccc(C(C)C)cc1S(=O)(=O)Nc1noc2cc(Cn3cc(CNS(C)(=O)=O)cn3)cc(OC)c12 [Syn. Ex. 38, 5-isopropyl-2-methoxy-N-(4-methoxy-6-((4-(methylsulfonamidomethyl)-1H-pyrazol-1-yl)methyl)benzo[d]isoxazol-3-yl)benzenesulfonamide]
–	–	100%	100%	CCc1cc(S(=O)(=O)Nc2noc3cc(Cn4cc(CNC(=O)OC)cn4)cc(OC)c23)c(OC)cn1 [Syn. Ex. 120, methyl ((1-((3-((2-ethyl-5-methoxypyridine)-4-sulfonamido)-4-methoxybenzo[d]isoxazol-6-yl)methyl)-1H-pyrazol-4-yl)methyl)carbamate]
100%	100%	–	–	C#CC(=O)NCc1cnn(Cc2cc(OC)c3c(NS(=O)(=O)c4cc(CC)ccc4OCc4nn[nH]n4)noc3c2)c1 [Syn. Ex. 70, N-((1-((3-((2-((2H-tetrazol-5-yl)methoxy)-5-ethylphenyl)sulfonamido)-4-methoxybenzo[d]isoxazol-6-yl)methyl)-1H-pyrazol-4-yl)methyl)propiolamide]
93%	100%	–	–	C=C(F)C(=O)NCc1cnn(Cc2cc(OC)c3c(NS(=O)(=O)c4ccc(OC)cc4OC)noc3c2)c1 [Syn. Ex. 60, N-((1-((3-((2,4-dimethoxyphenyl)sulfonamido)-4-methoxybenzo[d]isoxazol-6-yl)methyl)-1H-pyrazol-4-yl)methyl)-2-fluoroacrylamide]
93%	100%	–	–	CCc1ccc(OCC(=O)N2CCOCC2)c(S(=O)(=O)Nc2noc3cc(Cn4cc(CNC(=O)OC)cn4)cc(OC)c23)c1 [Syn. Ex. 66, methyl ((1-((3-((5-ethyl-2-(2-morpholino-2-oxoethoxy)phenyl)sulfonamido)-4-methoxybenzo[d]isoxazol-6-yl)methyl)-1H-pyrazol-4-yl)methyl)carbamate]
59%	92%	–	–	CCc1ccc(OCCN)c(S(=O)(=O)Nc2noc3cc(Cn4cc(CNC(=O)OC)cn4)cc(OC)c23)c1 [Syn. Ex. 75, methyl ((1-((3-((2-(2-aminoethoxy)-5-ethylphenyl)sulfonamido)-4-methoxybenzo[d]isoxazol-6-yl)methyl)-1H-pyrazol-4-yl)methyl)carbamate]
–	–	115%	117%	N-[[2-[[4-methoxy-3-[(6-methoxyindan-5-yl)sulfonylamino]-1,2-benzoxazol-6-yl]oxy]thiazol-5-yl]methyl]carbamate [Syn. Ex. 148]
100%	100%	–	–	C=C(F)C(=O)NCc1cnn(Cc2cc(OC)c3c(NS(=O)(=O)c4cc(CC)ccc4OCc4nn[nH]n4)noc3c2)c1 [Syn. Ex. 72, N-((1-((3-((2-((2H-tetrazol-5-yl)methoxy)-5-ethylphenyl)sulfonamido)-4-methoxybenzo[d]isoxazol-6-yl)methyl)-1H-pyrazol-4-yl)methyl)-2-fluoroacrylamide]
–	–	111%	114%	COC(=O)NCc1cnn(Cc2cc3c4c(noc4c2)NS(=O)(=O)c2c(OC)cccc2OCCCCCO3)c1 [Syn. Ex. 138, methyl ((1-((14-methoxy-15,15-dioxido-6,7,8,9-tetrahydro-5H,16H-4,10,18-trioxa-15-thia-16,17-diazabenzo[11,12]cyclotetradeca[1,2,3-cd]inden-2-yl)methyl)-1H-pyrazol-4-yl)methyl)carbamate]
98%	89%	–	–	CCc1ccc(OC)c(S(=O)(=O)Nc2noc3cc(Cn4cc(CNC(=O)OC)cn4)c(OC)cc23)c1 [Syn. Ex. 137, methyl ((1-((3-((5-ethyl-2-methoxyphenyl)sulfonamido)-5-methoxybenzo[d]isoxazol-6-yl)methyl)-1H-pyrazol-4-yl)methyl)carbamate]
100%	100%	–	–	CCc1ccc(OCc2ncc[nH]2)c(S(=O)(=O)Nc2noc3cc(Cn4cc(CNC(=O)OC)cn4)cc(OC)c23)c1 [Syn. Ex. 116, methyl ((1-((3-((2-((1H-imidazol-2-yl)methoxy)-5-ethylphenyl)sulfonamido)-4-methoxybenzo[d]isoxazol-6-yl)methyl)-1H-pyrazol-4-yl)methyl)carbamate]
0%	54%	–	–	C=C(F)C(=O)NCc1ccnc(Oc2cc(OC)c3c(NS(=O)(=O)c4cc(CC)ccc4OC)noc3c2)c1 [Syn. Ex. 111, N-((2-((3-((5-ethyl-2-methoxyphenyl)sulfonamido)-4-methoxybenzo[d]isoxazol-6-yl)oxy)pyridin-4-yl)methyl)-2-fluoroacrylamide]
108%	108%	–	–	COC(=O)NCc1cnn(Cc2cc3onc(NS(=O)(=O)c4ccccc4OC)c3cc2OC)c1 [Syn. Ex. 145, methyl ((1-((5-methoxy-3-((2-methoxyphenyl)sulfonamido)benzo[d]isoxazol-6-yl)methyl)-1H-pyrazol-4-yl)methyl)carbamate]
–	–	86%	100%	COC(=O)NCc1cnn(Cc2cc(OC)c3c(NS(=O)(=O)c4c(OC)ccnc4OC)noc3c2)c1 [Syn. Ex. 86, methyl ((1-((3-((2,4-dimethoxypyridine)-3-sulfonamido)-4-methoxybenzo[d]isoxazol-6-yl)methyl)-1H-pyrazol-4-yl)methyl)carbamate]
100%	100%	–	–	CCc1ccc(OCc2nn[nH]n2)c(S(=O)(=O)Nc2noc3cc(Cn4cc(CNC(=O)OC)cn4)cc(OC)c23)c1 [Syn. Ex. 71, methyl ((1-((3-((2-((2H-tetrazol-5-yl)methoxy)-5-ethylphenyl)sulfonamido)-4-methoxybenzo[d]isoxazol-6-yl)methyl)-1H-pyrazol-4-yl)methyl)carbamate]
100%	100%	–	–	COc1cc(C)c(C)cc1S(=O)(=O)Nc1noc2cc(Cn3cc(CNS(C)(=O)=O)cn3)cc(OC)c12 [Syn. Ex. 20, 2-methoxy-N-(4-methoxy-6-((4-(methylsulfonamidomethyl)-1H-pyrazol-1-yl)methyl)benzo[d]isoxazol-3-yl)-4,5-dimethylbenzenesulfonamide]
94%	99%	–	–	C=C(F)C(=O)NCc1cnn(Cc2cc(OC)c3c(NS(=O)(=O)c4cc(CC)ccc4OCCNC(C)=O)noc3c2)c1 [Syn. Ex. 82, N-((1-((3-((2-(2-acetamidoethoxy)-5-ethylphenyl)sulfonamido)-4-methoxybenzo[d]isoxazol-6-yl)methyl)-1H-pyrazol-4-yl)methyl)-2-fluoroacrylamide]
